Columns and labels:
[1] = tested on: Klebsiella pneumoniae IMP-4; assay: Meropenem MIC, CLSI broth or agar microdilution, strain entry 1; format: cell-based
[2] = tested on: E. coli IMP-4; assay: Meropenem MIC, CLSI broth or agar microdilution, strain entry 2; format: cell-based
[3] = tested on: E. coli VIM-1; assay: Meropenem MIC, CLSI broth or agar microdilution, strain entry 3; format: cell-based; settings: strain entry 3, E. coli VIM-1
Text: (§1) In each case DMSO was used to dissolve inhibitors.

[4] = tested on: Klebsiella pneumoniae VIM-1; assay: Meropenem MIC, CLSI broth or agar microdilution, strain entry 4; format: cell-based
[5] = tested on: Pseudomonas aeruginosa VIM-2; assay: Meropenem MIC, CLSI broth or agar microdilution, strain entry 5; format: cell-based; settings: strain entry 5, Pseudomonas aeruginosa VIM-2
Text: as §1

[6] = tested on: Klebsiella pneumoniae NDM-1; assay: Meropenem MIC, CLSI broth or agar microdilution, strain entry 6; format: cell-based; settings: strain entry 6, Klebsiella pneumoniae NDM-1
Text: as §1

[7] = tested on: Klebsiella pneumoniae NDM-1 + DHA + CTX − M-15; assay: Meropenem MIC, CLSI broth or agar microdilution, strain entry 7; format: cell-based
[8] = biological target: VIM-2 (Veronese metallo-β-lactamase-2) (Escherichia coli, UniProt Q5U7L7); assay: Metallo-β-lactamase enzyme inhibition, standard assay protocol
[9] = biological target: IMP-1 (Imipenemase-1) (Serratia marcescens, UniProt P52699); assay: as above
[10] = biological target: NDM-1 (New Delhi metallo-β-lactamase-1) (Klebsiella pneumoniae, UniProt C7C422); assay: as above
[11] = biological target: VIM-1 (Veronese metallo-β-lactamase-1) (Pseudomonas aeruginosa, UniProt A0A0F7KYQ8); assay: as above

IMP-1 (Imipenemase-1), sequence (P52699 19-246, looked up, species assumed): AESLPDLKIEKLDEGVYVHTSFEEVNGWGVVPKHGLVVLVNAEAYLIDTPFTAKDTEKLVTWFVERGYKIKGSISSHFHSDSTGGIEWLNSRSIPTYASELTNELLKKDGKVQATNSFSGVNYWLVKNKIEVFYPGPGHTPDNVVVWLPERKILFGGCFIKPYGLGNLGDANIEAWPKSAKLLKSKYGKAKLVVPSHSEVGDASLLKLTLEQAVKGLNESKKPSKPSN
NDM-1 (New Delhi metallo-β-lactamase-1), sequence (C7C422 29-270, looked up, species assumed): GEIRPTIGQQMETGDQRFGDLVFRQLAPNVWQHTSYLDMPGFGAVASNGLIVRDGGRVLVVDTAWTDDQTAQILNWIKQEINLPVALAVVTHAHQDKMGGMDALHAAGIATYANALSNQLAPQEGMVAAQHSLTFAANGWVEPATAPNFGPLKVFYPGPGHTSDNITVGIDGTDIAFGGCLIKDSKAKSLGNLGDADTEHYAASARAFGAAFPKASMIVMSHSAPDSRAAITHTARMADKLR

Row | Change in MIC value of meropenem ([1]; 2 mg/L inhibitor) | Change in MIC value of meropenem ([1]; 4 mg/L inhibitor) | Change in MIC value of meropenem ([1]; 8 mg/L inhibitor) | Change in MIC value of meropenem ([2]; 2 mg/L inhibitor) | Change in MIC value of meropenem ([2]; 4 mg/L inhibitor) | Change in MIC value of meropenem ([2]; 8 mg/L inhibitor) | Change in MIC value of meropenem ([3]; 2 mg/L inhibitor) | Change in MIC value of meropenem ([3]; 4 mg/L inhibitor) | Change in MIC value of meropenem ([3]; 8 mg/L inhibitor) | Change in MIC value of meropenem ([4]; 2 mg/L inhibitor) | Change in MIC value of meropenem ([4]; 4 mg/L inhibitor) | Change in MIC value of meropenem ([4]; 8 mg/L inhibitor) | Change in MIC value of meropenem ([5]; 2 mg/L inhibitor) | Change in MIC value of meropenem ([5]; 4 mg/L inhibitor) | Change in MIC value of meropenem ([5]; 8 mg/L inhibitor) | Change in MIC value of meropenem ([6]; 2 mg/L inhibitor) | Change in MIC value of meropenem ([6]; 4 mg/L inhibitor) | Change in MIC value of meropenem ([6]; 8 mg/L inhibitor) | Change in MIC value of meropenem ([7]; 2 mg/L inhibitor) | Change in MIC value of meropenem ([7]; 4 mg/L inhibitor) | Structure (SMILES) | other results
1 | −1 log2 difference | −1 log2 difference | −1 log2 difference | −1 log2 difference | −1 log2 difference | −1 log2 difference | −1 log2 difference | −1 log2 difference | −1 log2 difference | −1 log2 difference | −1 log2 difference | −1 log2 difference | 0 log2 difference | 0 log2 difference | 0 log2 difference | −1 log2 difference | −1 log2 difference | −2 log2 difference | −2 log2 difference | −2 log2 difference | NS(=O)(=O)c1ccc(-c2c(C(=O)O)[nH]c3c(Br)csc23)cc1 [Example 14, 3-bromo-6-(4-sulfamoylphenyl)-4H-thieno-[3,2-b]pyrrole-5-carboxylic acid] | Change in MIC value of meropenem ([7]; 8 mg/L inhibitor): −3 log2 difference; IC50 [8]: 0.158 µM; IC50 [9]: 1.26 µM; IC50 [10]: 0.0631 µM; IC50 [11]: 3.16 µM
2 | −2 log2 difference | −2 log2 difference | −2 log2 difference | −2 log2 difference | −2 log2 difference | −2 log2 difference | −1 log2 difference | −1 log2 difference | −1 log2 difference | −2 log2 difference | −2 log2 difference | −2 log2 difference | 0 log2 difference | 0 log2 difference | 0 log2 difference | −1 log2 difference | −1 log2 difference | −2 log2 difference | −2 log2 difference | −2 log2 difference | O=C(O)c1[nH]c2c(C3CC3)csc2c1-c1ccc(F)cc1 [Example 13, 3-cyclopropyl-6-(4-fluorophenyl)-4H-thieno-[3,2-b]pyrrole-5-carboxylic acid] | Change in MIC value of meropenem ([7]; 8 mg/L inhibitor): −2 log2 difference; IC50 [8]: 0.0794 µM; IC50 [9]: 0.398 µM; IC50 [10]: 0.0501 µM; IC50 [11]: 1.58 µM

From patent publication US20210137886A1, “INHIBITORS OF METALLO-BETA-LACTAMASES” (Oxford University Innovation Limited, priority 2017, published 2021)
